Results published in publication PMC7344628, “Bone-Seeking Matrix Metalloproteinase Inhibitors for the Treatment of Skeletal Malignancy” (Pharmaceuticals, 2020).
Read-outs that look alike come from different tables or passages of the source.

What was measured:
Test in all cases: fluorogenic peptide substrate assay
Type in all cases: biochemical
MMP-9 = molecular target: T1, MMP-9 (Homo sapiens, UniProt P14780)
T1 construct: gene MMP9
Excerpt: fluorogenic peptide substrate assay on MMP-9

MMP-2 = molecular target: T2, MMP-2 (Homo sapiens, UniProt P08253)
T2 construct: gene MMP2
T2 sequence (P08253 110-446 limits assumed): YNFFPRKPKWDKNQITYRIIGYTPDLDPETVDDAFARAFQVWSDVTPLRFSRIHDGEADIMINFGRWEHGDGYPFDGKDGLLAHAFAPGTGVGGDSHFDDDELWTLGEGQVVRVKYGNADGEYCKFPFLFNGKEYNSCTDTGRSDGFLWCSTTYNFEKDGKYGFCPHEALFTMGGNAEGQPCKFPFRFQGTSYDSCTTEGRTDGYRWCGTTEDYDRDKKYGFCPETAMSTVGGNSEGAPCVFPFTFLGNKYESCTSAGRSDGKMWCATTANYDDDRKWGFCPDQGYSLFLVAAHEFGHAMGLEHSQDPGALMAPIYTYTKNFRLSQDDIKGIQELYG
Excerpt: fluorogenic peptide substrate assay on MMP-2

MMP-8 = molecular target: T3, MMP-8 (Homo sapiens, UniProt P22894)
T3 construct: gene MMP8
T3 sequence (P22894 100-262 limits assumed): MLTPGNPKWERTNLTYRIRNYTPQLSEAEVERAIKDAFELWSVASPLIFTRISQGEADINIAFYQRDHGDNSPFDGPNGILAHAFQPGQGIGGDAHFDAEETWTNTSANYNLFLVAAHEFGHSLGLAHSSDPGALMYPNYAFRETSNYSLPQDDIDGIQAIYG
Excerpt: fluorogenic peptide substrate assay on MMP-8

MMP-13 = molecular target: T4, MMP-13 (Homo sapiens, UniProt P45452)
T4 construct: gene MMP13
Excerpt: fluorogenic peptide substrate assay on MMP-13

T1 sequence (P14780 107-444 limits assumed): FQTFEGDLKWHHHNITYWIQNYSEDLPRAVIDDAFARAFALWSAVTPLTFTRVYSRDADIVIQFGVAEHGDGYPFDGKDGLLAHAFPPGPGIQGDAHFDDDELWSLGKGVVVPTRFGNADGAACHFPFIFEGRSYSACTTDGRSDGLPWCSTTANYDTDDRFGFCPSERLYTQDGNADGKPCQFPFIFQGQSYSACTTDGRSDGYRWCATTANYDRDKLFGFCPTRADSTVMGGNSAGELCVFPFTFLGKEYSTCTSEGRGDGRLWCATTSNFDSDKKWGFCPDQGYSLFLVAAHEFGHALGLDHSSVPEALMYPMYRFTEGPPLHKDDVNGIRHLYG

O=P(O)(O)C(NS(=O)(=O)c1ccc(-c2ccccc2)cc1)P(=O)(O)O [ML 115]
IC50 (MMP-9): > 100 µM
IC50 (MMP-2; OmniMMP 2.5 µM or OmniMMP RED 1 µM, pH 7.5, 1 mM CaCl2, 1 µM ZnCl2, 15 min preincubation, 37 °C): 0.14 ± 0.04 µM
IC50 (MMP-8): 0.4 ± 0.03 µM
IC50 (MMP-13): 0.74 ± 0.06 µM

Nc1ccc(S(=O)(=O)NC(P(=O)(O)O)P(=O)(O)O)cc1 [compound 1, (4-aminophenylsulfonylamino)methyl-1,1-bisphosphonic acid]
IC50 (MMP-9): > 100 µM
IC50 (MMP-2): 19 ± 3 µM
IC50 (MMP-8): 66 ± 8 µM
IC50 (MMP-13): 68.9 ± 10.2 µM

O=P(O)(O)C(NS(=O)(=O)c1ccc2ccccc2c1)P(=O)(O)O [compound 2, (2-naphthylsulfonylamino)methyl-1,1-bisphosphonic acid]
IC50 (MMP-9): > 100 µM
IC50 (MMP-2): 18.7 ± 0.8 µM
IC50 (MMP-8): 26.8 ± 0.9 µM
IC50 (MMP-13): 9.6 ± 0.4 µM

O=P(O)(O)C(NS(=O)(=O)c1cccc2ccccc12)P(=O)(O)O [compound 3, (1-naphthylsulfonylamino)methyl-1,1-bisphosphonic acid]
IC50 (MMP-9): 57 ± 2 µM
IC50 (MMP-2): 15.2 ± 0.5 µM
IC50 (MMP-8): 31.3 ± 1.2 µM
IC50 (MMP-13): 14.6 ± 0.8 µM

O=C(Nc1ccccc1)Nc1ccc(S(=O)(=O)NC(P(=O)(O)O)P(=O)(O)O)cc1 [compound 4, (4-(3-phenylureido)phenylsulfonylamino)methyl-1,1-bisphosphonic acid]
IC50 (MMP-9): 13.8 ± 0.6 µM
IC50 (MMP-2): 2.8 ± 0.6 µM
IC50 (MMP-8): 48 ± 15 µM
IC50 (MMP-13): 15 ± 6 µM

O=C1c2ccccc2C(=O)N1c1ccc(S(=O)(=O)NC(P(=O)(O)O)P(=O)(O)O)cc1 [compound 5, (4-(1,3-dioxoisoindolin-2-yl)phenylsulfonylamino)methyl-1,1-bisphosphonic acid]
IC50 (MMP-9): 15 ± 6 µM
IC50 (MMP-2): 5.3 ± 0.4 µM
IC50 (MMP-8): 45 ± 5 µM
IC50 (MMP-13): 18.1 ± 1.5 µM

O=C(Nc1ccc(S(=O)(=O)NC(P(=O)(O)O)P(=O)(O)O)cc1)c1ccccc1 [compound 6, (4-benzamidophenylsulfonylamino)methyl-1,1-bisphosphonic acid]
IC50 (MMP-9): 2.3 ± 0.1 µM
IC50 (MMP-2): 2.75 ± 0.35 µM
IC50 (MMP-8): 1.88 ± 0.03 µM
IC50 (MMP-13): 2 ± 0.7 µM

O=C(Nc1cccc(S(=O)(=O)NC(P(=O)(O)O)P(=O)(O)O)c1)c1ccccc1 [compound 7, (3-benzamidophenylsulfonylamino)methyl-1,1-bisphosphonic acid]
IC50 (MMP-9): 50 ± 11 µM
IC50 (MMP-2): 9 ± 0.8 µM
IC50 (MMP-8): 79 ± 8 µM
IC50 (MMP-13): 28 ± 4 µM

Cc1ccc(C(=O)Nc2ccc(S(=O)(=O)NC(P(=O)(O)O)P(=O)(O)O)cc2)cc1 [compound 8, (4-(4-methylbenzamido)phenylsulfonylamino)methyl-1,1-bisphosphonic acid]
IC50 (MMP-9): 0.67 ± 0.25 µM
IC50 (MMP-2): 0.958 ± 0.018 µM
IC50 (MMP-8): 0.78 ± 0.18 µM
IC50 (MMP-13): 3.3 ± 0.7 µM

O=C(Nc1ccc(S(=O)(=O)NC(P(=O)(O)O)P(=O)(O)O)cc1)c1ccc(Br)cc1 [compound 9, (4-(4-bromobenzamido)phenylsulfonylamino)methyl-1,1-bisphosphonic acid]
IC50 (MMP-9): 0.088 ± 0.012 µM
IC50 (MMP-2): 0.67 ± 0.16 µM
IC50 (MMP-8): 0.66 ± 0.13 µM
IC50 (MMP-13): 0.14 ± 0.05 µM

O=C(Nc1ccc(S(=O)(=O)NC(P(=O)(O)O)P(=O)(O)O)cc1)c1cccc(Br)c1 [compound 10, (4-(3-bromobenzamido)phenylsulfonylamino)methyl-1,1-bisphosphonic acid]
IC50 (MMP-9): > 100 µM
IC50 (MMP-2): 4.2 ± 1.3 µM
IC50 (MMP-8): 17 ± 4 µM
IC50 (MMP-13): 15.9 ± 1.9 µM

O=C(Nc1ccc(S(=O)(=O)NC(P(=O)(O)O)P(=O)(O)O)cc1)c1ccc([N+](=O)[O-])cc1 [compound 11, (4-(4-nitrobenzamido)phenylsulfonylamino)methyl-1,1-bisphosphonic acid]
IC50 (MMP-9): 0.43 ± 0.1 µM
IC50 (MMP-2): 1.7 ± 0.3 µM
IC50 (MMP-8): 0.46 ± 0.11 µM
IC50 (MMP-13): 0.61 ± 0.16 µM

O=C(Nc1ccc(S(=O)(=O)NC(P(=O)(O)O)P(=O)(O)O)cc1)c1cccc2ccccc12 [compound 12, (4-(1-naphthamido)phenylsulfonylamino)methyl-1,1-bisphosphonic acid]
IC50 (MMP-9): 21.5 ± 0.7 µM
IC50 (MMP-2): 2.7 ± 1 µM
IC50 (MMP-8): 25 ± 12 µM
IC50 (MMP-13): 12 ± 5 µM

O=C(Nc1ccc(S(=O)(=O)NC(P(=O)(O)O)P(=O)(O)O)cc1)c1ccc2ccccc2c1 [compound 13, (4-(2-naphthamido)phenylsulfonylamino)methyl-1,1-bisphosphonic acid]
IC50 (MMP-9): 76 ± 8 µM
IC50 (MMP-2): 3.9 ± 0.5 µM
IC50 (MMP-8): 16.6 ± 1.9 µM
IC50 (MMP-13): 9.3 ± 0.5 µM
